{"source": "paper PMC6838151", "about": "(Scientific Reports, 2019)", "key": {"[1]": {"test_system": "S. cerevisiae WT (BY4741)", "test": "MIC50 growth inhibition, S. cerevisiae wt BY4741, 48 h", "type": "cell-based, Saccharomyces cerevisiae", "details": "YPD, 30 °C", "source_text": "(§1) For the preliminary studies of the biological activity of the studied compound we chose S. cerevisiae, which is generally considered a non-pathogenic organism, but currently recognized as a potentially important agent causing opportunistic infections against immunocompromised patients. In order to assess whether all the Ke derivatives share the mechanism of action with the parent compound, or if they might present different or additional modes of action, the inhibitory concentration MIC50 (Table 2) was determined on the basis of the dose-response curves (Fig. S11 in ESI) in a 48 h assay against S. cerevisiae wt strain BY4741 and the deletion mutant erg6Δ, which lacks the gene coding for the S-adenosylmethionine: 24-methyltransferase[52], accumulating cholesta-5,7,24-trienol and zymosterol instead of ergosterol. There are several studies reporting that the ERG6 gene deletion may increase the resistance of S. cerevisiae cells to azole compounds[54]–[56]. […] The value determined for the wt strain is in very good agreement with previous studies carried out under similar condition (48 h, 30 °C) (e.g.[57]).\n(§2) The following strains of S. cerevisiae were used in this study: BY4741 (wild type towards erg6Δ, ACC Y00000; MATa; his3Δ1; leu2Δ0; met15Δ0; ura3Δ0), erg6Δ (ACC Y00568; BY4741 isogenic with YML008c::kanMX4), W303 (wild type towards AD1-8; MATα; leu2-3,112 trp1-1 can1-100 ura3-1 ade2-1 his3-11,15 AD1-8 (W303 isogenic with pdr1-3, ura3, his1, yor1∆::hisG, snq2∆::hisG, pdr5∆::hisG, pdr10∆::hisG, pdr11∆:: hisG, ycf1∆::hisG, pdr3∆::hisG, pdr15∆::hisG). BY4741 and erg6Δ were acquired from EUROSCARF, Frankfurt, Germany; W303 and AD1-8 were kind gifts from Prof. A. Goffeau, Chaire Internationale Blaise Pascal, Lab. Genet. Mol., École Normale Supérieure, Paris, and Prof. M. Ghislain, Université Catholique de Louvain, Faculté des sciences Agronomiques, Louvain-la-Neuve, Belgium. Visible turbid overnight cultures of S. cerevisiae strains were prepared and diluted to A600 ≈ 0.1 in fresh Yeast Extract – Peptone - Dextrose (YPD) medium. The cultures were transferred to 96 microtiter well plates containing aliquots of serially diluted antifungal drugs (Ke and its derivatives: KeP, KeOP, KeSP, KeSeP), prepared from DMS stock solutions and drug-free controls. The yeast cultures were statically incubated at 30 °C for 48 hours with compounds[88]. The dose-response curves were analysed with GraphPad Prism 5 software (San Diego, USA) or a microplate reader ASYS UVM (Biogenet). All values presented are the mean of at least three independent experiments."}, "S. cerevisiae erg6Δ": {"test_system": "S. cerevisiae erg6Δ", "test": "MIC50 growth inhibition, S. cerevisiae erg6Δ deletion mutant, 48 h", "type": "cell-based, Saccharomyces cerevisiae", "source_text": "as §1, §2"}, "S. cerevisiae WT (W303)": {"test_system": "S. cerevisiae WT (W303)", "test": "MIC50 growth inhibition, S. cerevisiae wt W303, 48 h", "type": "cell-based", "details": "Saccharomyces cerevisiae", "source_text": "as §2, with “The cultures were transferred to 96 microtiter well plates containing aliquots of serially diluted antifungal drugs (Ke and its derivatives: KeP, KeOP, KeSP, KeSeP), prepared from DMS stock solutions and drug-free controls.” left out"}, "S. cerevisiae AD1-8": {"test_system": "S. cerevisiae AD1-8", "test": "MIC50 growth inhibition, S. cerevisiae AD1-8 (lacks major ABC transporters), 48 h", "type": "cell-based, Saccharomyces cerevisiae", "details": "for MIC50: Saccharomyces cerevisiae", "source_text": "as §2, with “The cultures were transferred to 96 microtiter well plates containing aliquots of serially diluted antifungal drugs (Ke and its derivatives: KeP, KeOP, KeSP, KeSeP), prepared from DMS stock solutions and drug-free controls.” left out"}, "C. albicans B3": {"test_system": "C. albicans B3", "test": "microbe, parasite or virus in culture", "type": "cell-based", "details": "Candida albicans", "source_text": "(§3) The C. albicans CAF2-1 (Genotype/Description: ura3Δ::imm434/URA3[89]) and DSY1050 (Genotype/Description: cdr1Δ::hisG/cdr1Δ::hisG/cdr2Δ::hisG/cdr2Δ::hisG/mdr1Δ::hisG-URA3-hisG/mdr1Δ::hisG[90]) strains used in this study were generous gift from D. Sanglard (Lausanne, Switzerland)[91],[92] whereas C. albicans B3 and Gu4 (Genotype/Description: clinical isolates fluconazole sensitive)[93]), B4 (Genotype/Description: Clinical isolate fluconazole resistant due to the overexpression of MDR1[93]) and Gu5 (Genotype/Description: Clinical isolate fluconazole resistant due to the overexpression of CDR1 and CDR2[93]) were a generous gift from prof. S. Milewski (Gdańsk, Poland)[94] and prof. J. Morschhäuser (Wurzburg, Germany)[93]. All strains were grown at 37 °C on Sabouraud medium (Biomerieux).\n(§4) The antifungal activity was determined on the 96-well polystyrene microtiter plates (Sarstedt) according to Clinical and Laboratory Standards Institute M27-A3[95]. […] The compounds were dissolved in DMSO (10 mM) and then serially diluted in RPMI-1640 (ThermoFisher) medium to obtain the final concentration range. Inocula of all strains were prepared as suspensions with turbidity of 0.5 McFarland standard in sterile 0.85% saline and diluted in RPMI-1640. After inoculation, each well contained appr. 5 × 10^2 CFU/mL. The plates were cultivated for 48 h at 37 °C. Optical density was measured at A490nm using a microplate reader ASYS UVM 340 (Biogenet)."}, "C. albicans Gu4": {"test_system": "C. albicans Gu4", "test": "microbe, parasite or virus in culture", "type": "cell-based", "details": "Candida albicans, GU4, 48 h", "source_text": "as §3, §4"}, "[2]": {"details": "Saccharomyces cerevisiae, read-out: MIC50"}, "[3]": {"details": "AD18, S. cerevisiae AD1-8, YPD, 30 °C, 48 h, read-out: MIC50"}, "[4]": {"details": "C. albicans B3, RPMI-1640, 37 °C, 48 h, read-out: MIC50"}, "[5]": {"details": "S. cerevisiae WT (W303), YPD, 30 °C, read-out: MIC50"}, "[6]": {"details": "S. cerevisiae erg6Δ, YPD, 30 °C"}}, "note": "Like-named read-outs stand apart in the source and are kept apart here."}
{"smiles": "O=P(CN1CCN(c2ccc(OC[C@H]3CO[C@](Cn4ccnc4)(c4ccc(Cl)cc4Cl)O3)cc2)CC1)(c1ccccc1)c1ccccc1", "note": "(racemic) [KeOP, Ph2P(O)CH2-Ke]", "values": [{"measurement": "MIC50", "setting": "[1]; [2]", "value": 0.00416, "unit": "µM"}, {"measurement": "MIC50", "setting": "S. cerevisiae erg6Δ; Saccharomyces cerevisiae", "value": 0.00482, "unit": "µM"}, {"measurement": "MIC50", "setting": "S. cerevisiae WT (W303)", "value": 3.13, "unit": "µM"}, {"measurement": "MIC50", "setting": "S. cerevisiae AD1-8; [3]", "value": 0.05, "unit": "µM"}, {"measurement": "MIC50", "setting": "C. albicans B3; [4]", "value": 1.56, "unit": "µM"}, {"measurement": "MIC50", "setting": "C. albicans Gu4", "value": 12.5, "unit": "µM"}]}
{"smiles": "Clc1ccc([C@@]2(Cn3ccnc3)OC[C@H](COc3ccc(N4CCN(CP(c5ccccc5)c5ccccc5)CC4)cc3)O2)c(Cl)c1", "note": "(racemic) [KeP, Ph2PCH2-Ke]", "values": [{"measurement": "MIC50", "setting": "[1]; [2]", "value": 9.02, "unit": "µM"}, {"measurement": "MIC50", "setting": "S. cerevisiae erg6Δ; Saccharomyces cerevisiae", "value": 0.654, "unit": "µM"}, {"measurement": "MIC50", "setting": "S. cerevisiae WT (W303); [5]", "value": 12.5, "unit": "µM"}, {"measurement": "MIC50", "setting": "S. cerevisiae AD1-8; [3]", "value": 0.2, "unit": "µM"}, {"measurement": "MIC50", "setting": "C. albicans B3; [4]", "value": 0.39, "unit": "µM"}, {"measurement": "MIC50", "setting": "C. albicans Gu4", "value": 3.13, "unit": "µM"}]}
{"smiles": "CC(=O)N1CCN(c2ccc(OCC3COC(Cn4ccnc4)(c4ccc(Cl)cc4Cl)O3)cc2)CC1", "note": "(stereo not shown) [Ke, ketoconazole, reference compound]", "values": [{"measurement": "MIC50", "setting": "[1]; [2]", "value": 0.865, "unit": "µM"}, {"measurement": "MIC50", "setting": "S. cerevisiae erg6Δ; [6]", "value": "no activity"}, {"measurement": "MIC50", "setting": "S. cerevisiae erg6Δ; Saccharomyces cerevisiae", "value": "> 200", "unit": "µM"}, {"measurement": "MIC50", "setting": "S. cerevisiae WT (W303); [5]", "value": 6.25, "unit": "µM"}, {"measurement": "MIC50", "setting": "S. cerevisiae AD1-8; AD18, 48 h", "value": 0.02, "unit": "µM"}, {"measurement": "MIC50", "setting": "C. albicans B3; B3, 48 h", "value": 0.05, "unit": "µM"}, {"measurement": "MIC50", "setting": "C. albicans Gu4", "value": 25, "unit": "µM"}]}
{"smiles": "S=P(CN1CCN(c2ccc(OC[C@H]3CO[C@](Cn4ccnc4)(c4ccc(Cl)cc4Cl)O3)cc2)CC1)(c1ccccc1)c1ccccc1", "note": "[KeSP, Ph2P(S)CH2-Ke]", "values": [{"measurement": "MIC50", "setting": "[1]; [2]", "value": "> 200", "unit": "µM"}, {"measurement": "MIC50", "setting": "[1]", "value": "inactive"}, {"measurement": "MIC50", "setting": "S. cerevisiae erg6Δ; [6]", "value": "inactive"}, {"measurement": "MIC50", "setting": "S. cerevisiae erg6Δ; Saccharomyces cerevisiae", "value": "> 200", "unit": "µM"}, {"measurement": "MIC50", "setting": "S. cerevisiae WT (W303)", "value": "> 200", "unit": "µM"}, {"measurement": "MIC50 against AD1-8 lower than against W303 cells", "setting": "S. cerevisiae AD1-8; AD1-8 vs W303", "value": "more than 3 orders of magnitude"}, {"measurement": "MIC50", "setting": "S. cerevisiae AD1-8; AD18, 48 h", "value": 0.2, "unit": "µM"}, {"measurement": "MIC50", "setting": "C. albicans B3; [4]", "value": 1.56, "unit": "µM"}, {"measurement": "MIC50", "setting": "C. albicans Gu4", "value": 50, "unit": "µM"}]}
{"smiles": "Clc1ccc([C@@]2(Cn3ccnc3)OC[C@H](COc3ccc(N4CCN(CP(=[Se])(c5ccccc5)c5ccccc5)CC4)cc3)O2)c(Cl)c1", "note": "[KeSeP, Ph2P(Se)CH2-Ke]", "values": [{"measurement": "MIC50", "setting": "[1]; [2]", "value": 1.24, "unit": "µM"}, {"measurement": "MIC50", "setting": "S. cerevisiae erg6Δ; Saccharomyces cerevisiae", "value": 0.578, "unit": "µM"}, {"measurement": "MIC50", "setting": "S. cerevisiae WT (W303); [5]", "value": 50, "unit": "µM"}, {"measurement": "MIC50", "setting": "S. cerevisiae AD1-8; [3]", "value": 0.2, "unit": "µM"}, {"measurement": "MIC50", "setting": "C. albicans B3; [4]", "value": 3.13, "unit": "µM"}, {"measurement": "MIC50", "setting": "C. albicans Gu4", "value": 12.5, "unit": "µM"}]}
